This is an account of results in article PMC11408460 (Cellular and Molecular Life Sciences: CMLS, 2024).

The half-life is the time in which the quantity being followed falls by half.

Residues, ends and D or L forms follow the SMILES beside them.

The test system of data set [1] is HeLa GL cells. Briefly: Autophagy quantification by immunofluorescence (GFP-LC3B puncta area). The data set is classed as cell-based. The note with it: 4 h, peptides 1 mg/ml, Chloroquine 10 µM, Torin-1 1 µM, confocal microscopy, n = 32–110 cells. The protocol: HeLa GL cells were grown on coverslips (VWR) and treated for 4 h with respective substance. Afterwards, cells were fixed with 4% (w/v) PFA (Santa Cruz) for 20 min and permeabilized as well as blocked with 0.5% (v/v) Triton-X-100 (Sigma-Aldrich) and 5% (v/v) fetal bovine serum (Gibco) PBS for 1 h, both at RT. Cells were then mounted on microscope slides (VWR) in 4′,6-diamidino-2-phenylindole (DAPI, VWR)-containing Mowiol mounting medium (Mowiol 4–88 10% (w/v, Carl Roth), glycerol 25% (w/v, Sigma-Aldrich), H2O 25% (v/v), 0.2 M Tris HCl pH 8.5 50% (v/v, AppliChem GmbH, VWR), DABCO 2.5% (w/v, Carl Roth)) to co-stain nuclei. After acquiring ≥ 30 randomly selected cells using a Zeiss LSM 710 confocal microscope, a custom ImageJ (Version 1.54j) macro was used to analysis the total area of the cytoplasmic eGFP-LC3B puncta as previously described.
Scale bar, 10 µm. DAPI (blue), nuclei. e Quantitative analysis of the LC3B-GFP area per cell of the data in (d). Lines represent geometric mean with 95% confidence interval, n = 32–110. […] Student’s t-test with Welch correction. *p < 0.05; **p < 0.01; ***p < 0.001

Data set [2] is described as follows: in vitro. The note with it: human, plasma.
Procedure: (§1) The mixture was centrifuged at 13,000 rpm for 30 s, and 150 µl of the supernatant was mixed with 750 µl 10% acetic acid in ice. The samples were analyzed by an Axima Confidence MALDI-TOF MS (Shimadzu) in linear mode using exactly the same measurement conditions for all samples spotted on a 384-well plate. Wells were coated with 1 µl of 5 mg/ml CHCA previously dissolved in matrix diluent (Shimadzu), and the solvent was allowed to evaporate. Then, each sample (0.5 µl), previously mixed with matrix (0.5 µl), was applied onto the dry pre-coated well, and the solvent was allowed to evaporate. Laser shots were automatically done following a regular circular raster of a diameter of 2000 µm and spacing of 200 µm on each well; 100 profiles were acquired per sample, and 20 shots were accumulated per profile. An accelerating voltage of 20 kV was applied to the ion source. Three experiments were performed, and the measurements of each sample were done in triplicate (81 measurements in total). The measurement and MS data processing (peak area calculation) were controlled by MALDI-MS Application Shimadzu Biotech Launchpad 2.9.8.1 (Shimadzu). Half-lives were calculated by GraphPad Prism 9.3.1 (GraphPad Software, LLC).
For data set [3] the following is noted: HBA1(111–132) incubated in human plasma, 37 °C, mass spectrometry.
Procedure: as §1
The conditions of data set [4]: 1 mg/ml peptide in 1 × PBS, 22 °C, absorbance 330 nm, triplicates, corrected against PBS.
Procedure: 100 µl peptide solution was transferred to transparent 96-well F-bottom microplates (Greiner) and immediately processed. Before the measurement, solutions were briefly mixed by double-orbital shaking for 60 s at 240 rpm. Measurements were done at 22 °C in triplicates using a TECAN Spark plate reader at a wavelength of 330 nm and a bandwidth of 3.5 nm. Values were corrected against 1 × PBS and averaged.
Data set [5] concerns HeLa GL cells. The data set can be described thus: Autophagy quantification via flow cytometry (membrane-bound eGFP-LC3B), HeLa GL. The format is cell-based. The conditions noted are these: 4 h; for autophagosome levels, versions of HBA1(120–132): 1 mg/ml, co-treatment with 20 µM Chloroquine, n = 10–24. The protocol: A detailed protocol for quantification of the number of autophagosomes has previously been published. In brief, HEK293T, HeLa, and THP-1 cell lines stably expressing eGFP-LC3B (labelled as -GL respectively) were used. After cells were treated for 4 h with respective substance/fraction, cells were harvested by removing the medium and adding 0.05% trypsin (PAN Biotech). Afterwards cells were washed once with PBS and permeabilized with 0.05% (w/v) Saponin (Sigma-Aldrich) in PBS. Non-membrane bound eGFP-LC3B was washed out using PBS. Cells were fixed in 4% (w/v) paraformaldehyde in PBS. Quantification of the membrane associated eGFP-LC3B was performed using flow cytometry FACS Canto II, BD Biosciences. The mean eGFP-LC3B fluorescence intensity of the water control was then subtracted from each sample.
To discover endogenous regulators of autophagy, we analyzed a human peptide library derived from bone marrow (BM). In brief, marrow was removed from 1.5 kg human femur bones and homogenized in acetic acid. The homogenate was filtered to contain only peptides with a molecular mass below 30 kDa. The BM library was initially separated on a reversed-phase column. To analyze the autophagy-modulating properties of individual peptide fractions, we used a high-throughput flow cytometry-based autophagosome quantification system. A hallmark of autophagy is the transition from soluble LC3B-I to autophagosome-associated LC3B-II. In GFP-LC3B expressing HeLa cells (HeLa GL), soluble GFP-LC3B is washed out by mild permeabilization and the remaining membrane-bound GFP-LC3B is quantified by FACS as a proxy for autophagosome numbers. Changes in autophagosome content are visualized as deviations from the background (i.e. carrier) control. […] Further purification identified subfraction BM.25.40.28 as bioactive (Fig. 1c). To identify the active peptide(s) we subjected fractions BM.25.40.26 to BM.25.40.30 to analysis by mass spectrometry (Supplementary data 1). Peptides with a molecular mass from ~ 750 Da to 5360 Da and a length from 7 to 57 amino acids were found in the fractions (Supplementary Fig. 1a). […]

For data set [6] the following is noted: human; cited from earlier work.
Data set [7] in a line: Circular dichroism. The data set is classed as physicochemical. The conditions noted are these: 10 mM phosphate buffer pH 7.4, 25 °C; 130 µM HBA1(120–132), 54 µM HBA1(111–132), 2.1 µM full-length human HB. The protocol: Circular dichroism spectroscopy was recorded on a JASCO J-1500 spectrophotometer at 25 °C using a 0.1 cm path length quartz cuvette from Hellma Analytical. Data points were collected at a resolution of 0.2 nm, an integration time of 2 s and a scanning speed of 5 nm min-1. Each spectrum was the result of three accumulated independent scans. Phosphate buffer solution (10 mM, pH = 7.4) was employed to solubilize the samples. […] Background subtraction was performed using the solvent. Secondary structure estimation (SSE) for the samples was conducted using the CD Multivariate SSE program included in the JASCO spectrometer.

In the case of `CCN(CC)CCCC(C)Nc1ccnc2cc(Cl)ccc12` (stereo not drawn) [Chloroquine], the “GFP-LC3B area per cell (puncta = autophagosomes)” value in data set [1] is reported as “expected increase of autophagosomes”.
`CC(C)C[C@H](NC(=O)[C@H](Cc1ccccc1)NC(=O)[C@H](CCCCN)NC(=O)[C@H](CC(=O)O)NC(=O)[C@H](CC(C)C)NC(=O)[C@H](CO)NC(=O)[C@H](C)NC(=O)[C@H](Cc1c[nH]cn1)NC(=O)[C@@H](NC(=O)[C@H](C)NC(=O)[C@@H]1CCCN1C(=O)[C@@H](NC(=O)[C@H](Cc1ccccc1)NC(=O)[C@H](CCC(=O)O)NC(=O)[C@H](C)NC(=O)[C@@H]1CCCN1C(=O)[C@H](CC(C)C)NC(=O)[C@H](Cc1c[nH]cn1)NC(=O)[C@H](C)NC(=O)[C@H](C)N)[C@@H](C)O)C(C)C)C(=O)N[C@@H](C)C(=O)N[C@@H](CO)C(=O)O` [HBA1(111–132)] (H-AAHLPAEFTPAVHASLDKFLAS-OH): in data set [2], the half-life at 8.7 µM turned out to be 52 min.
With `CC(C)C[C@H](NC(=O)[C@H](Cc1ccccc1)NC(=O)[C@H](CCCCN)NC(=O)[C@H](CC(=O)O)NC(=O)[C@H](CC(C)C)NC(=O)[C@H](CO)NC(=O)[C@H](C)NC(=O)[C@H](Cc1c[nH]cn1)NC(=O)[C@@H](NC(=O)[C@H](C)NC(=O)[C@@H]1CCCN1C(=O)[C@@H](NC(=O)[C@H](Cc1ccccc1)NC(=O)[C@H](CCC(=O)O)NC(=O)[C@H](C)NC(=O)[C@@H]1CCCN1C(=O)[C@H](CC(C)C)NC(=O)[C@@H](N)Cc1c[nH]cn1)[C@@H](C)O)C(C)C)C(=O)N[C@@H](C)C(=O)N[C@@H](CO)C(=O)O` [HBA1(113–132)] (H-HLPAEFTPAVHASLDKFLAS-OH), in data set [3], the “time of appearance of degradation fragment above 5% of total HBA1 content” value was at most 15 min and the “time of peak abundance of degradation fragment post plasma treatment” value is reported as over 140 min.
With `CC(C)C[C@H](NC(=O)[C@H](Cc1ccccc1)NC(=O)[C@H](CCCCN)NC(=O)[C@H](CC(=O)O)NC(=O)[C@H](CC(C)C)NC(=O)[C@H](CO)NC(=O)[C@H](C)NC(=O)[C@H](Cc1c[nH]cn1)NC(=O)[C@@H](NC(=O)[C@H](C)NC(=O)[C@@H]1CCCN1C(=O)[C@@H](NC(=O)[C@H](Cc1ccccc1)NC(=O)[C@H](CCC(=O)O)NC(=O)[C@H](C)NC(=O)[C@@H]1CCCN1)[C@@H](C)O)C(C)C)C(=O)N[C@@H](C)C(=O)N[C@@H](CO)C(=O)O` [HBA1(115–132)] (H-PAEFTPAVHASLDKFLAS-OH), the “time of appearance of degradation fragment above 5% of total HBA1 content” value in data set [3] amounted to 180 min.
Turning to `CC(C)C[C@H](NC(=O)[C@H](CO)NC(=O)[C@H](C)NC(=O)[C@H](Cc1c[nH]cn1)NC(=O)[C@@H](NC(=O)[C@H](C)NC(=O)[C@@H]1CCCN1)C(C)C)C(=O)N[C@@H](C)C(=O)N[C@@H](C)C(=O)N[C@@H](Cc1ccccc1)C(=O)N[C@@H](CC(C)C)C(=O)N[C@@H](C)C(=O)N[C@@H](CO)C(=O)O` [HBA1(120–132)D127A + K128A] (H-PAVHASLAAFLAS-OH), in data set [4], the “solubility (precipitation turbidity, optical density)” value (“solubility” for short) is reported as “almost insoluble in water”.
For the compound `CC(C)C[C@H](NC(=O)[C@H](C)NC(=O)[C@H](C)NC(=O)[C@H](Cc1c[nH]cn1)NC(=O)[C@@H](NC(=O)[C@H](C)NC(=O)[C@@H]1CCCN1)C(C)C)C(=O)N[C@@H](CC(=O)O)C(=O)N[C@@H](CCCCN)C(=O)N[C@@H](Cc1ccccc1)C(=O)N[C@@H](CC(C)C)C(=O)N[C@@H](C)C(=O)N[C@@H](C)C(=O)O` [HBA1(120–132)S125A + S132A] (H-PAVHAALDKFLAA-OH), the “solubility” value in data set [4] is listed as “remained similar to HBA1(120–132)”.
Consider `CCC(=O)N1CCN(c2ccc(-n3c(=O)ccc4cnc5ccc(-c6cnc7ccccc7c6)cc5c43)cc2C(F)(F)F)CC1` [Torin-1], for which the “GFP-LC3B area per cell (puncta = autophagosomes)” value in data set [1] is reported as “expected increase of autophagosomes”.
As for “D128A: HBA1(120–132) with aspartic acid exchanged for alanine (PAVHASLAKFLAS; UniProt P69905 120-132, looked up, fragment D127A)”, the “autophagosome levels, versions of HBA1(120–132)” value in data set [5] is recorded as “does not alter the function”. Moreover, the “solubility” value in data set [4] is “does not alter the function nor the solubility”.
Regarding “K127A: HBA1(120–132) with lysine exchanged for alanine (PAVHASLDAFLAS; UniProt P69905 120-132, looked up, fragment K128A)”, in data set [5], the “autophagosome levels, versions of HBA1(120–132)” value is “the function to inhibit autophagy was reduced”. The “solubility” value in data set [4] was “precipitates were detected”.
On to TNF-α, for which the half-life entry in data set [6] is listed as “around 18 min”.
Take “full-length HB: recombinant full-length hemoglobin”: the “secondary structure in solution (circular dichroism)” value in data set [7] is “mainly composed of alpha-helical structures”.
With “full-length HBA1: full-length hemoglobin A (HB subunit alpha-1)”, the “effect on autophagosome levels” value in data set [5] (concentration range 1 mg/ml–7.8 µg/ml, n = 3) is “did not impact autophagosome levels”.
